Data: PMC3561458 (Investigational new drugs, 2011)

Tested on: patients with advanced/metastatic solid tumors
Experiment: Phase I safety: adverse events
Format: in vivo, human

## CNC(=O)c1nn(C)c2c1C(C)(C)Cc1cnc(Nc3ccc(N4CCN(C)CC4)cc3)nc1-2 [PHA-848125AC, N,1,4,4-tetramethyl-8-{[4-(4-methylpiperazin-1-yl)phenyl]amino}-4,5-dihydro-1H-pyrazolo [4,3-h]quinazoline-3-carboxamide]
S1
  ERG findings during treatment: No abnormal ERG findings
  doses at which DLTs≥Grade 3 were noted: ≥ 200 mg/day
S1 50 mg/day N=3, all cycles
  Any drug-related adverse event, CTC Grade 1–4: patients: 3
  Nausea, drug-related, CTC Grade 1–4: patients: 1
S1 100 mg/day N=6, all cycles
  Any drug-related adverse event, CTC Grade 1–4: patients: 6
  Any drug-related adverse event, CTC Grade 3–4: patients: 1
  Decreased Hb, drug-related, CTC Grade 1–4: patients: 1
  Decreased Hb, drug-related, CTC Grade 3–4: patients: 1
  Diarrhea, drug-related, CTC Grade 1–4: patients: 1
  Fatigue, drug-related, CTC Grade 1–4: patients: 2
  Fatigue, drug-related, CTC Grade 3–4: patients: 1
  Nausea, drug-related, CTC Grade 1–4: patients: 3
  Tremor, drug-related, CTC Grade 1–4: patients: 2
  Vomiting, drug-related, CTC Grade 1–4: patients: 3
S1 200 mg/day
  DLT events: Grade 3 ataxia and Grade 2–3 tremors
S1 200 mg/day N=6, all cycles
  Any drug-related adverse event, CTC Grade 1–4: patients: 6
  Any drug-related adverse event, CTC Grade 3–4: patients: 5
  Ataxia, drug-related, CTC Grade 1–4: patients: 3
  Ataxia, drug-related, CTC Grade 3–4: patients: 3
  Diarrhea, drug-related, CTC Grade 1–4: patients: 5
  Diarrhea, drug-related, CTC Grade 3–4: patients: 1
  Dizziness, drug-related, CTC Grade 1–4: patients: 1
  Fatigue, drug-related, CTC Grade 1–4: patients: 2
  Increased ALT, drug-related, CTC Grade 1–4: patients: 1
  Increased ALT, drug-related, CTC Grade 3–4: patients: 1
  Nausea, drug-related, CTC Grade 1–4: patients: 4
  Neutropenia, drug-related, CTC Grade 1–4: patients: 1
  Neutropenia, drug-related, CTC Grade 3–4: patients: 1
  Syncope, drug-related, CTC Grade 1–4: patients: 1
  Syncope, drug-related, CTC Grade 3–4: patients: 1
  Tremor, drug-related, CTC Grade 1–4: patients: 4
  Tremor, drug-related, CTC Grade 3–4: patients: 2
  Vomiting, drug-related, CTC Grade 1–4: patients: 4
S1 300 mg/day N=1, all cycles
  Any drug-related adverse event, CTC Grade 1–4: patients: 1
  Any drug-related adverse event, CTC Grade 3–4: patients: 1
  Ataxia, drug-related, CTC Grade 1–4: patients: 1
  Ataxia, drug-related, CTC Grade 3–4: patients: 1
  Dehydration, drug-related, CTC Grade 1–4: patients: 1
  Diarrhea, drug-related, CTC Grade 1–4: patients: 1
  Dizziness, drug-related, CTC Grade 1–4: patients: 1
  Fatigue, drug-related, CTC Grade 1–4: patients: 1
  Nausea, drug-related, CTC Grade 1–4: patients: 1
  Tremor, drug-related, CTC Grade 1–4: patients: 1
  Vomiting, drug-related, CTC Grade 1–4: patients: 1
S1 (7 days on/7 days off q2wks), all doses
  dose-limiting toxicities (DLTs): ataxia (Grade 2–4) and tremors (Grade 2–3)
S1, single patient, Grade 1 increased lacrimation
  patients with drug-related eye disorders: 4.5%
S1 N=22
  patients discontinued due to adverse events: 13.6%
S2
  ataxia: not observed
  fundoscopy and ERG abnormalities during treatment: neither clinically relevant abnormality at fundoscopy nor ERG abnormalities
S2 150 mg/day N=5, all cycles
  Anemia, drug-related, CTC Grade 1–4: patients: 2
  Any drug-related adverse event, CTC Grade 1–4: patients: 5
  Any drug-related adverse event, CTC Grade 3–4: patients: 4
  Diarrhea, drug-related, CTC Grade 1–4: patients: 3
  Hypokalemia, drug-related, CTC Grade 1–4: patients: 1
  Hypokalemia, drug-related, CTC Grade 3–4: patients: 1
  Increased ALT, drug-related, CTC Grade 1–4: patients: 1
  Increased ALT, drug-related, CTC Grade 3–4: patients: 1
  Increased Lipase, drug-related, CTC Grade 1–4: patients: 1
  Increased Lipase, drug-related, CTC Grade 3–4: patients: 1
  Nausea, drug-related, CTC Grade 1–4: patients: 3
  Neutropenia, drug-related, CTC Grade 1–4: patients: 1
  Tremor, drug-related, CTC Grade 1–4: patients: 3
  Vomiting, drug-related, CTC Grade 1–4: patients: 2
  Vomiting, drug-related, CTC Grade 3–4: patients: 1
S2 200 mg/day N=4, all cycles
  Anemia, drug-related, CTC Grade 1–4: patients: 2
  Any drug-related adverse event, CTC Grade 1–4: patients: 4
  Any drug-related adverse event, CTC Grade 3–4: patients: 2
  Dehydration, drug-related, CTC Grade 1–4: patients: 1
  Diarrhea, drug-related, CTC Grade 1–4: patients: 3
  Diarrhea, drug-related, CTC Grade 3–4: patients: 1
  Dizziness, drug-related, CTC Grade 1–4: patients: 2
  Fatigue, drug-related, CTC Grade 1–4: patients: 3
  Nausea, drug-related, CTC Grade 1–4: patients: 1
  Neutropenia, drug-related, CTC Grade 1–4: patients: 1
  Tremor, drug-related, CTC Grade 1–4: patients: 2
  Tremor, drug-related, CTC Grade 3–4: patients: 1
